Reference: ChEMBL document CHEMBL1201862, “PubChem BioAssay data set” (2004)
The source made the active and inactive calls.

Tests used:
[1] = THP-1 cell cytotoxicity, dose response, cytotoxicity control for non-replicating M. tuberculosis project (AID 489025); assay type: functional
Streptococcus = test: Group A Streptococcus viability loss, dose response, counter-screen for streptokinase expression inhibitor project, luminescence, BacTiterGlo (AID 1915); assay type: functional, organism-based;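 also: potency for reduction of bacterial viability or growth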
[2] = test system: Streptococcus sp. 'group A'; test: growth inhibition of control SK(-) GAS strain, dose response, counter-screen for streptokinase expression inhibitor project, luminescence, kanamycin, BacTiterGlo, confirmation (AID 1900); assay type: functional, organism-based
cells = assay type: functional
[3] = biological target: T1, DNA repair protein RAD52 homolog (Homo sapiens, UniProt P43351); assay type: functional, biochemical
T1 sequence (P43351 whole entry): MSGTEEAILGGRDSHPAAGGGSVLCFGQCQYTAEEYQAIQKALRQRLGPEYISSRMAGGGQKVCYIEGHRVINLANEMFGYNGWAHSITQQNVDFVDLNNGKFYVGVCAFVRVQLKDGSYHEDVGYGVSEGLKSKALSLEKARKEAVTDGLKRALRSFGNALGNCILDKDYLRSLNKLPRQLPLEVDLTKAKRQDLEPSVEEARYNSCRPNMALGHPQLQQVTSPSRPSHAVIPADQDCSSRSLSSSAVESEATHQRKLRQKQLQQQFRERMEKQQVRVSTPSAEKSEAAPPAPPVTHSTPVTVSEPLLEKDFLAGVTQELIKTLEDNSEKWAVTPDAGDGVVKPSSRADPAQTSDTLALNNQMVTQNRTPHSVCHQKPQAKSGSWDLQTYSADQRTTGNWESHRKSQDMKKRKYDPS

[4] = inhibitors of firefly luciferase expression or activity, dose response, H4 neuroglioma cells, luminescence (AID 1990); assay type: functional, cell-based
BJ [5] = test: cytotoxicity toward BJ-TERT-LT-ST fibroblasts, dose response, cell-based, RAS-independent, luminescence (AID 1935); assay type: functional; conditions: Homo sapiens;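 also: BJ fibroblasts immortalized with TERT plus LT and ST oncogenes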
[6] = Luminescence Cell-Based Dose Response HTS to Identify Inhibitors of 5'UTR Stem-Loop Driven Prion Protein mRNA Translation in H4 Neuroglioblastoma Cells. [Related pubchem assays: 1827 (Project Summary), 1813 (Primary HTS)]; assay type: functional
[7] = cytotoxicity in HEK-293T cells, dose response, cytotoxicity control for TCR NF-kB inhibitor project, luminescence, T-cell screen hits (AID 489026); assay type: functional, cell-based;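 also: cells exposed to compound about 14 hours before the viability readout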
BJ [8] = test: cytotoxicity toward BJ-TERT fibroblasts, dose response, cell-based, RAS-independent, luminescence (AID 1933); assay type: functional; conditions: Homo sapiens
[9] = cytotoxicity toward DRD oncogenic fibroblasts, dose response, cell-based, non-viral oncogenic, luminescence (AID 1934); assay type: functional; conditions: Homo sapiens
[10] = inhibitors of SNCA 5'UTR-driven reporter translation, confirmation, H4 neuroglioma cells, luminescence (AID 1988); assay type: functional, cell-based
BJ [11] = test: cells; assay type: functional, cell-based; conditions: Homo sapiens
[12] = Shn3 3'UTR reporter inhibitors, dose response, cell-based, Clone20 osteoblasts, firefly luciferase, cherry-picked (AID 624132); assay type: functional;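 also: firefly luciferase luminescence from reporter carrying the Shn3 3'UTR in osteoblasts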
[13] = cytotoxicity toward NIH3T3 fibroblasts, dose response, counter-screen, cell-based, ATP luminescence, mouse fibroblasts (AID 2010); assay type: functional;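 also: cells exposed to compound for about 90 hours before reading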
[14] = control 3'UTR Renilla luciferase suppression, dose response, counter-screen for Shn3 inhibitor project, cell-based, Clone20-Shn3RL, cherry-picked (AID 624133); assay type: functional
[15] = HepG2 cell cytotoxicity, dose response, cytotoxicity control for Shn3 inhibitor project, CellTiter-Glo, cherry-picked (AID 624134); assay type: functional, cell-based
[16] = inhibitors of intracellular T. cruzi replication, confirmation, NIH3T3 host cells, beta-gal luminescence (AID 2044); assay type: functional, cell-based;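 also: intracellular parasites grown in NIH/3T3 mouse fibroblasts as host cells; luminescent beta-galactosidase reporter signal from transgenic T. cruzi replicating inside host cells; inhibitors lower the luminescence signal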
Genome polyprotein = Genome polyprotein (dengue virus type 2, UniProt P29990); test: Dengue-2 NS5 methyltransferase inhibitors, primary screen, biochemical, confirmation dose response (AID 588689); assay type: functional
Sequence of Genome polyprotein (P29990 2492-3391 limits assumed): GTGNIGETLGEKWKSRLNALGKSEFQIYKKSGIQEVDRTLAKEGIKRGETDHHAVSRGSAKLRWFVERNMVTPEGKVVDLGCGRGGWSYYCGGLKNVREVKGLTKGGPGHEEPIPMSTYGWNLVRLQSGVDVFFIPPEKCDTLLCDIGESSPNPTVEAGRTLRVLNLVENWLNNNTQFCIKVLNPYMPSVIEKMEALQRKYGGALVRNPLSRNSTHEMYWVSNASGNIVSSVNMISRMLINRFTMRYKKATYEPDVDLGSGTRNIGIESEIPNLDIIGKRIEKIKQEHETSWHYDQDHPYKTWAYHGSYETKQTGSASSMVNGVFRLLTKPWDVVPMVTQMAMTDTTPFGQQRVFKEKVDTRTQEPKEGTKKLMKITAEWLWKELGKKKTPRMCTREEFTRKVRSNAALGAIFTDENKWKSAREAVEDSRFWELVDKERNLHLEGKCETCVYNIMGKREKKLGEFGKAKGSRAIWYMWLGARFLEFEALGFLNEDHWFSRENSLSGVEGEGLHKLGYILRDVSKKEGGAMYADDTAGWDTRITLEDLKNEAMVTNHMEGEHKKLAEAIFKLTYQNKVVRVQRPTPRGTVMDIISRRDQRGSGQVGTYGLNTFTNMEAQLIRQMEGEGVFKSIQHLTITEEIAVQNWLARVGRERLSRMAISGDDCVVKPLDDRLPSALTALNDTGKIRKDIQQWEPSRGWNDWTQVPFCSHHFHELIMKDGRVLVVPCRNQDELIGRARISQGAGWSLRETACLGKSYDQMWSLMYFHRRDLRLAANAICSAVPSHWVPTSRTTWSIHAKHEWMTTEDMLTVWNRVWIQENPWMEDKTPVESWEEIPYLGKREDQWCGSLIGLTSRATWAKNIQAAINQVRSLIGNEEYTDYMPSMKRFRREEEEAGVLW

[17] = biological target: T2, High affinity choline transporter 1 (Homo sapiens, UniProt Q9GZV3); test: CHT inhibitors, dose response, cell-based, 5-point CRC, membrane potential dye (AID 504840); assay type: functional
T2 sequence (Q9GZV3 whole entry): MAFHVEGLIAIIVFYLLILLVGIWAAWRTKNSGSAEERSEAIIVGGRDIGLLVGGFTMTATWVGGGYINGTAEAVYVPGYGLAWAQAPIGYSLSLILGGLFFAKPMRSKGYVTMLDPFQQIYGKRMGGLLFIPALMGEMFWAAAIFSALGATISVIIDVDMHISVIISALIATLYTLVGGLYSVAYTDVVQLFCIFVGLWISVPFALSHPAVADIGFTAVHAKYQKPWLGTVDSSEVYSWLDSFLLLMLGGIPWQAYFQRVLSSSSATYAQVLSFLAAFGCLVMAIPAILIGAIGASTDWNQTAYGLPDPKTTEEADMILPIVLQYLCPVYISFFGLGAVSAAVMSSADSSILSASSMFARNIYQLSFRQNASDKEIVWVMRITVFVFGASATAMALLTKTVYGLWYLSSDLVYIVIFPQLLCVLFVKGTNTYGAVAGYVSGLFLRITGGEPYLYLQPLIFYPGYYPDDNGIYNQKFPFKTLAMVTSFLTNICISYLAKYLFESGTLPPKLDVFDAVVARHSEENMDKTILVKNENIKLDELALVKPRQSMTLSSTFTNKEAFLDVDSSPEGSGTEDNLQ

[18] = biological target: T3, Carboxy-terminal domain RNA polymerase II polypeptide A small phosphatase 1 (Homo sapiens, UniProt Q9GZU7); test: inhibitors of CTDSP1, concentration-response testing, biochemical assay, absorbance-based, actives from ultra-high-throughput screening (AID 540297); assay type: functional
T3 sequence (Q9GZU7 whole entry): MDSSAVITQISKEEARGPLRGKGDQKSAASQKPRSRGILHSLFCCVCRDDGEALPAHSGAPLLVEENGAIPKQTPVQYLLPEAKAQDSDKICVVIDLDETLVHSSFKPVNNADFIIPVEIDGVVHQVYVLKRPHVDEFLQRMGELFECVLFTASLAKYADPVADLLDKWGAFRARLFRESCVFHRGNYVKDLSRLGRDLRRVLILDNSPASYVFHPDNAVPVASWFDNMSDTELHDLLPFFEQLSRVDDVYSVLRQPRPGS

[19] = biological target: T4, Rac GTPase-activating protein 1 (Homo sapiens, UniProt Q9H0H5); test: MgcRacGAP GTPase-activating activity inhibitors, confirmation, biochemical, ADP Hunter fluorescence, primary and confirmatory (AID 624330); assay type: functional
T4 sequence (Q9H0H5 whole entry): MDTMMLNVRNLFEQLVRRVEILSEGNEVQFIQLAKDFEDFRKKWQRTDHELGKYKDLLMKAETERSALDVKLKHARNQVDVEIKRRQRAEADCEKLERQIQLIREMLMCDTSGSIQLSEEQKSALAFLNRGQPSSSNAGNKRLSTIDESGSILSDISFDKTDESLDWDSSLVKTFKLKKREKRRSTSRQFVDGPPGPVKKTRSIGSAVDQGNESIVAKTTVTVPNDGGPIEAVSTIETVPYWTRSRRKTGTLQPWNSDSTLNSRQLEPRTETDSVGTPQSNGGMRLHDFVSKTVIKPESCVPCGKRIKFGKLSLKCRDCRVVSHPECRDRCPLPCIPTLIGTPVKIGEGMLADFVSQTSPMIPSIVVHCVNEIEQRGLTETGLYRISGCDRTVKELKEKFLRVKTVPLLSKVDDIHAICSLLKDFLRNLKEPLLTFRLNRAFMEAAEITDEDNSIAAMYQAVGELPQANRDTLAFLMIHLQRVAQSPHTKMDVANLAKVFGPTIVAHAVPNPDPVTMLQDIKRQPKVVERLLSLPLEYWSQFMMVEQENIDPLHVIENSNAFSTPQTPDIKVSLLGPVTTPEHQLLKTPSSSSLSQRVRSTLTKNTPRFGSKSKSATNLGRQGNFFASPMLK

[20] = inhibitors of clade B AD8 Env fusion, dose response, cell-based, cherry-pick (AID 652062); assay type: functional;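 also: luciferase signal from cell-cell fusion driven by HIV-1 clade B AD8 Env; potency is for inhibitors of fusion seen as a drop in luminescence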
[21] = ZM109 Env clade C HIV-1 fusion inhibitors, dose response, HeLa effector, CEM target cells, luciferase, cherry-pick (AID 652058); assay type: functional, cell-based
[22] = A Cell Based Secondary Assay To Explore Cytotoxicity of Compounds that Sensitize Mycobacterium Tuberculosis to Beta-Lactam Antibiotics.; assay type: functional
INS1 = test: beta cell apoptosis inhibitors, cytokine rescue, dose response, luminescence, retest (AID 449756); assay type: functional, cell-based; conditions: Rattus norvegicus;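 also: cell death triggered by IL-1 beta plus TNF-alpha plus IFN-gamma mixture; protective hits raise ATP signal compared with cytokine alone wells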
[23] = biological target: T5, Heat shock factor protein 1 (Mus musculus, UniProt P38532); test: HSF1 potentiators in luciferase reporter cells, confirmation, cell-based, NIH3T3, luminescence, dose retest (AID 435004); assay type: functional;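 also: stress induced by proteasome inhibitor MG132 added 30 min after compound; luciferase reporter driven by HSF1 response element in NIH3T3 cells; actives raise luminescence as potentiators of the MG132 stress response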
T5 sequence (P38532 whole entry): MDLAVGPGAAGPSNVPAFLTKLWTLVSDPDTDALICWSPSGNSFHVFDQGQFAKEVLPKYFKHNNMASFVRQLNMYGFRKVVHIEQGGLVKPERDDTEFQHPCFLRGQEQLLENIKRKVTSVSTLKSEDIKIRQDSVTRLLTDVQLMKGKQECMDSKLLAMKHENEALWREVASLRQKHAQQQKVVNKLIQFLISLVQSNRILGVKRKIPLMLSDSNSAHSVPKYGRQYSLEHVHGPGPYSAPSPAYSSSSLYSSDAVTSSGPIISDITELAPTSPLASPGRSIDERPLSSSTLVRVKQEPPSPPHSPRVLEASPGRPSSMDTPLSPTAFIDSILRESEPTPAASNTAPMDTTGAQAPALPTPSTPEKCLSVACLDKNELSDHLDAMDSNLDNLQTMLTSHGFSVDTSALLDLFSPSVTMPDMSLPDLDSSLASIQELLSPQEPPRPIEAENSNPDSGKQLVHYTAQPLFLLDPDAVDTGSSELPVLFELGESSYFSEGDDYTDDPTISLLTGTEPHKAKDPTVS

[24] = A549 cell cytotoxicity, dose response, cytotoxicity control, plate reader, cherry-pick, antagonist series (AID 743412); assay type: functional, cell-based
[25] = HepG2 cell cytotoxicity, dose response, cytotoxicity control, plate reader, cherry-pick, antagonist series (AID 743416); assay type: functional, cell-based
[26] = MC4R antagonists, dose response, counter-screen for LGR2 antagonist project, cell-based, plate reader, cherry pick (AID 743444); assay type: functional;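 also: transfected HEK 293 cells stimulated with alpha-MSH peptide; potency of inhibitors of the alpha-MSH evoked signal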
[27] = LGR2 antagonists, dose response, cell-based, HEK293, CRE-luciferase reporter, cherry pick, set 2 (AID 743343); assay type: functional;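 also: transfected cells were stimulated with diluted bursicon conditioned medium after compound addition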

For Cc1ccccc1OCCCCc1c(C)n[nH]c1C, the CC50 [1] was > 40 µM (active), the EC50 (Streptococcus) was 19 µM (active) and the EC50 [2] was 9.02 µM (active). For the same molecule, the IC50 (cells) was 7 µM (active).

With CCN(CC)CCCN(C(=O)c1cccc(C)c1)c1nc(-c2ccc(OC)cc2)cs1 the AC50 [3] was 17.2 µM (active).

For COc1cc(CC(=O)OCC(=O)c2ccc3c(c2)OCCO3)cc(OC)c1OC, the EC50 [4] was 5.8 µM (inconclusive), the EC50 (BJ [5]) was 1.62 µM (inconclusive) and the EC50 [6] was 5.66 µM (active). For the same molecule, the IC50 [7] was > 80 µM (inactive), the EC50 (BJ [8]) was 2.14 µM (active) and the EC50 [9] was 2.47 µM (active). The EC50 [10] was 4.99 µM (inconclusive) and the EC50 (BJ [11]) was 15.1 µM (active).

For CCOC(=O)c1c(CSc2ccc(CC)cc2)oc2ccc(O)c(CN(C)C)c12, the EC50 [4] was > 120 µM (not active), the EC50 [6] was > 120 µM (not active) and the AC50 [12] was 3.05 µM (active). For the same molecule, the EC50 [13] was > 30 µM (not active), the AC50 [14] was 14.1 µM (active) and the AC50 [15] was 30.8 µM (active). For the same molecule, the EC50 [10] was > 120 µM (not active), the AC50 [3] was 15.3 µM (active) and the EC50 [16] was 2.81 µM (active).

With CCCCNC(=O)c1onc(CSc2cccc3ccccc23)c1C(=O)O the IC50 (Genome polyprotein) was 49.6 µM (active).

For COc1cc(/C=C2\SC(NS(=O)(=O)Cc3ccccc3)=NC2=O)c([N+](=O)[O-])cc1OC, the IC50 [17] was 9.12 µM (active) and the IC50 (Genome polyprotein) was 55.8 µM (active).

For Clc1ccc(CN2C3=NCCCN3c3ccccc32)cc1, the CC50 [1] was > 40 µM (active).

With Cc1cc(C)c2nc(N3C(=O)C(O)=C(C(=O)c4ccco4)C3c3ccc(O)cc3)sc2c1 (stereo unspecified) the IC50 (Genome polyprotein) was 30.4 µM (active).

With O=C1NC(=O)N(c2ccc3c(c2)OCO3)C(=O)/C1=C\c1ccc(-c2ccccc2C(=O)O)o1 the IC50 [18] was 3.9 µM (active), the IC50 (Genome polyprotein) was > 100 µM (active) and the IC50 [19] was 75.4 µM (active).

For COc1ccccc1S(=O)(=O)N[C@H]1CC[C@@H](CC(=O)N2CCN(C)CC2)O[C@H]1CO, the AC50 [20] was 29.1 µM (active) and the AC50 [21] was 0.992 µM (active).

With O=C(Nc1ccc(C(F)(F)F)cc1)c1cc(-c2cccnc2)nc2ccc(Br)cc12 the CC50 [22] was > 40 µM (active).

With COc1ccc(S(=O)(=O)N[C@@H]2C=C[C@H](CC(=O)N3CCC(Cc4ccccc4)CC3)O[C@@H]2CO)cc1 the AC50 [20] was 32.6 µM (active) and the AC50 [21] was 19 µM (active).

With Cc1c(C(=O)N2CCOCC2)[nH]c2c1C(=O)CC(c1ccccc1Cl)C2 (stereo unspecified) the IC50 [7] was > 80 µM (inactive).

In the case of O=C1N=C(Nc2nc3ccccc3[nH]2)c2ccccc21, the AC50 (INS1) is reported as 3 µM (active), the EC50 (BJ [5]) is reported as 19.3 µM (active) and the EC50 [23] is reported as 0.987 µM (inconclusive). The EC50 (BJ [8]) was 12.5 µM (active), the EC50 [9] was 14.9 µM (active) and the EC50 (BJ [11]) was 24.8 µM (inconclusive).

With CCCOc1ccc(F)cc1-c1cc(C(=O)Nc2cc(OC)c(OC)c(OC)c2)[nH]n1 the AC50 [24] was > 52 µM (inactive), the AC50 [25] was > 52 µM (inactive) and the AC50 [26] was 31.2 µM (active). The AC50 [27] was 24 µM (active).
